Source: patent US20240360194A1, “New Peptides as Potent and Selective GIP Receptor Agonists” (Sanofi, priority 2021, published 2024)
Read-outs that look alike come from different tables or passages of the source. Numbered stars: 1 amine (or outer) side, 2 acyl side, 3 side chain; on linkers, the order of the positions; unused ones are H or OH. Square brackets hold non-standard residues; d marks the D form. Side chains are listed from the residue outwards. Peptide text beside a SMILES is read from it. * marks the point of attachment. C18 diacid = O=C(O)CCCCCCCCCCCCCCCCC(=O)*; γGlu = O=C(O)[C@H](CCC(=O)[*:2])N[*:1]; AEEA = NCCOCCOCC(=O)O; Aib = CC(C)(N)C(=O)O

Assays:
[1] = target: T1, human GIP receptor (hGIPR) (Homo sapiens, UniProt P48546); test: In vitro cellular cAMP assay for GIP receptor efficacy (HEK-293 cell line over-expressing receptor); type: cell-based; settings: EC50 hGIPR 0.1% BSA, HEK-293, 0.1% BSA
T1 sequence (P48546 22-466): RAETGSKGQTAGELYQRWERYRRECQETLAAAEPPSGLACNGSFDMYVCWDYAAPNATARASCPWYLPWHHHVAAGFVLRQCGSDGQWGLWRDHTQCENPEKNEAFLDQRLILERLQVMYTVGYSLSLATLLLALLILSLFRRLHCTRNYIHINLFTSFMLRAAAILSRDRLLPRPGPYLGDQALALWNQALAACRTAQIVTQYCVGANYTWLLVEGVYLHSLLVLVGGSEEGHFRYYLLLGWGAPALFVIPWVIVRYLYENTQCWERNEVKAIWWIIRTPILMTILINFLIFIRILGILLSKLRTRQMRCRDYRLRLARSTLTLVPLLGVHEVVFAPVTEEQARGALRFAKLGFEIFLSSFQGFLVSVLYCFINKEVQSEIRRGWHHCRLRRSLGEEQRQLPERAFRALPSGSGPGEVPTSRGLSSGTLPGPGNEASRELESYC

[2] = Pharmacokinetic evaluation in mice; type: in vivo, female C57Bl/6 mice; settings: female, C57Bl/6, mouse
Method: Compounds were administered in a suitable buffer system, e.g. PBS buffer solution at pH7.4 or DPBS solution at concentrations of 0.05, 0.1, 0.5 or 1 mg/ml depending on dose, species and administration volume. Female C57Bl/6 mice were dosed 0.25 mg/kg, 0.5 mg/kg or 1 mg/kg intravenously (i.v.) or subcutaneously (s.c.). The mice were sacrificed, and blood samples were collected after 0.08, 0.25, 0.5, 1, 2, 4, 8, 24, 32, and 48 h post i.v. application and 0.25, 0.5, 1, 2, 4, 8, 24, 32, and 48 h post s.c. application, respectively. Plasma samples were analysed after protein precipitation via liquid chromatography mass spectrometry (LC/MS). PK parameters and half-life were calculated using Phoenix-WinNonlin 8.1 using a non-compartmental model and linear trapezoidal interpolation calculation. Pharmacokinetic profiles were determined as described in Methods.

[3] = tested on: C57Bl/6 mice; test: Acute effects after s.c. treatment on blood glucose in an intraperitoneal glucose tolerance test (ipGTT); type: in vivo, male C57Bl/6NCrl mice; settings: for Blood glucose concentration AUC / Incremental blood glucose concentration AUCi: mean ± SEM; for Incremental blood glucose concentration AUCi: baseline corrected; for minimal effective dose for improvement of i.p. glucose tolerance: single s.c. dose, C57Bl/6NCrl mice, vs. vehicle
Description: Acute Effects after Subcutaneous (s.c.) Treatment on Blood Glucose in an Intraperitoneal (i.p.) Glucose Tolerance Test (ipGTT) in Healthy, Male C57Bl/6 Mice
Healthy, normoglycemic male C57Bl/6NCrl mice were ordered in an age of 9-10 weeks with an approximate body weight (BW) of 24-26 g at Charles River Laboratories Deutschland GmbH, 97633 Sulzfeld, Germany. Mice were shipped grouped housed (N=4 per cage), acclimatized for one week and remained grouped housed throughout the entire study. Mice were housed under vivarium conditions that included a 12 h light/dark cycle (light phase 06:00 AM-06:00 PM), mean room temperature of 22±2° C. and a relative mean humidity of 55±10%. All animals had free access to food (Ssniff R/M-H diet) and water prior to study start. At study start mice were between 10-11 weeks old.
The primary objective of the study was to investigate the compound-induced lowering of the blood glucose excursion and improvement of glucose tolerance in a mouse ipGTT setting and therefore the primary parameters included blood glucose, delta blood glucose (normalized to the time point just prior to the i.p. glucose challenge, t=0 h) and their respective calculated area under curve (AUC) values. The study was performed as an acute, single dosing study with 6 groups and the male animals were randomly divided to groups of 7-8 mice per group. Dose-dependent pharmacodynamic blood glucose lowering efficacy of the GIPR agonist was analyzed with s.c. injections 6 h before the i.p. glucose load in the dose range from 3 up to 100 nmol/kg and compared to the vehicle group as well as the semaglutide positive control at a dose of 10 nmol/kg.
In more detail, mice were fed overnight and on the following morning brought to the lab with food removed but ad libitum access to water. Blood samplings (5 μl) were performed at: −6.5, −0.5, 0, 0.17, 0.5, 1, 1.5, 2 and 3 h before and after the glucose bolus of 1 g glucose per kg BW i.p. given at time point t=0 h. On time point t=0.17 h an additional K-EDTA plasma sample from 60-80 μl blood was taken for plasma insulin analysis. Blood was withdrawn from the tip of the tail. The GIPR agonist and semaglutide were dissolved in 10 mM phosphate buffer pH 7.4 with 2.3% glycerol and 0.01% polysorbat 20 (vehicle) and s.c. treatment was performed −6 h before the glucose load (t=0 h) using an injection volume of 5 ml/kg. The injection solutions were freshly prepared prior to the experiment using sterile filtered vehicle solution. Blood glucose was determined enzymatically (Gluco-quant® Glucose/HK kit on Roche/Hitachi 912). Plasma insulin was determined using a mouse/rat insulin sandwich immunoassay kit from Meso Scale Discovery.
All data were collected using Microsoft Excel. None of the data were collected online. The results are expressed as means±standard error of the mean (SEM). As primary study parameters, blood glucose, baseline (time point t=0 h) subtracted delta blood glucose and their respective calculated area under curve (AUC) values were determined.
The statistical analysis of the ipGTT blood glucose excursion data response following subcutaneous compound or vehicle treatment was performed on the calculated AUC values of blood glucose raw data as well as the calculated AUC values for baseline subtracted delta blood glucose data. In a first step the Levene's test was used to test for equality of variances between groups. […] Where Levene's test was not significant (p>0.05) ANOVA was conducted without prior rank transformation. In a second step a One-way ANOVA analysis for factor treatment followed by Dunnett's multiple comparisons test vs. vehicle group was used to test for statistical differences. All analyses were performed using SAS (version 9.4) under Linux via the interface software EverSt@t V6.1.
Male C57Bl/6NCrl mice were fed overnight and on the following morning brought to the lab with food removed but adlibitum access to water. […]

SMILES: CC[C@H](C)[C@H](NC(=O)[C@H](CCCNC(=N)N)NC(=O)[C@H](CC(=O)O)NC(=O)[C@H](CCCCNC(=O)COCCOCCNC(=O)COCCOCCNC(=O)CC[C@H](NC(=O)CCCCCCCCCCCCCCCCC(=O)O)C(=O)O)NC(=O)C(C)(C)NC(=O)[C@@H](NC(=O)[C@H](CO)NC(=O)[C@H](CC(C)C)NC(=O)[C@H](CC(=O)O)NC(=O)[C@H](CO)NC(=O)[C@@H](NC(=O)[C@H](Cc1ccccc1)NC(=O)[C@@H](NC(=O)CNC(=O)[C@H](CCC(=O)O)NC(=O)C(C)(C)NC(=O)[C@@H](N)Cc1ccc(O)cc1)[C@@H](C)O)[C@@H](C)CC)[C@@H](C)CC)C(=O)N[C@@H](Cc1c[nH]cn1)C(=O)N[C@@H](CCC(N)=O)C(=O)NC(C)(C)C(=O)N[C@@H](CCC(=O)O)C(=O)N[C@@H](Cc1ccccc1)C(=O)N[C@H](C(=O)N[C@@H](CCC(=O)O)C(=O)N[C@@H](Cc1c[nH]c2ccccc12)C(=O)N[C@@H](CC(C)C)C(=O)N[C@@H](CC(C)C)C(=O)N[C@@H](C)C(=O)N[C@@H](CCC(N)=O)C(=O)N[C@@H](CCCNC(=N)N)C(=O)NCC(N)=O)[C@@H](C)CC [SEQ ID NO: 6, H2N-Y-Aib-E-G-T-F-I-S-D-L-S-I-Aib-K[{AEEA}2-gGlu-C18OH]-D-R-I-H-Q-Aib-E-F-I-E-W-L-L-A-Q-R-G-NH2]
- EC50 [1]: 5.93 pM
- AUC(0-t) ([2]; plasma, iv, mice, 0.25 mg/kg i.v., read-out: AUClast): 20800 ng·h/mL
- clearance ([2]; plasma, iv, mice, 0.25 mg/kg i.v., read-out: Cl (converted)): 0.198 mL/min/kg
- Cmax ([2]; plasma, iv, mice, 0.25 mg/kg i.v., read-out: Cmax): 3470 ng/mL
- half-life ([2]; plasma, iv, mice, 0.25 mg/kg i.v., read-out: T1/2 (converted)): 7.9 h
- AUC(0-t) ([2]; plasma, sc, mice, 0.5 mg/kg s.c., read-out: AUClast): 37500 ng·h/mL
- Cmax ([2]; plasma, sc, mice, 0.5 mg/kg s.c., read-out: Cmax): 2390 ng/mL
- bioavailability ([2]; plasma, sc, mice, 0.5 mg/kg s.c., read-out: F): 91%
- half-life ([2]; plasma, sc, mice, 0.5 mg/kg s.c., read-out: T1/2 (converted)): 8.21 h
- Blood glucose concentration AUC ([3]; Example 13 study, 3 nmol/kg s.c. 6 h before i.p. glucose, vehicle 23.20): +21.51 ± 0.580 mmol/L* 0-2 h
- Incremental blood glucose concentration AUCi ([3]; Example 13 study, 3 nmol/kg s.c., vehicle 5.50): +3.85 ± 0.438 mmol/L* 0-2 h
- Blood glucose concentration AUC ([3]; Example 13 study, 10 nmol/kg s.c. 6 h before i.p. glucose, vehicle 23.20): +19.37 ± 0.309 mmol/L* 0-2 h
- Incremental blood glucose concentration AUCi ([3]; Example 13 study, 10 nmol/kg s.c., vehicle 5.50): +3.84 ± 0.240 mmol/L* 0-2 h
- Blood glucose concentration AUC ([3]; Example 13 study, 30 nmol/kg s.c. 6 h before i.p. glucose, vehicle 23.20): +17.22 ± 0.453 mmol/L* 0-2 h
- Incremental blood glucose concentration AUCi ([3]; Example 13 study, 30 nmol/kg s.c., vehicle 5.50): +2.87 ± 0.382 mmol/L* 0-2 h
- Blood glucose concentration AUC ([3]; Example 13 study, 100 nmol/kg s.c. 6 h before i.p. glucose, vehicle 23.20): +15.35 ± 0.308 mmol/L* 0-2 h
- Incremental blood glucose concentration AUCi ([3]; Example 13 study, 100 nmol/kg s.c., vehicle 5.50): +1.21 ± 0.361 mmol/L* 0-2 h
- minimal effective dose for improvement of i.p. glucose tolerance [3]: 10 to 30 nmol/kg

SMILES: CC[C@H](C)[C@H](NC(=O)[C@H](Cc1ccccc1)NC(=O)[C@H](CCC(=O)O)NC(=O)[C@H](CCC(=O)O)NC(=O)[C@H](CCC(N)=O)NC(=O)[C@H](Cc1c[nH]cn1)NC(=O)[C@@H](NC(=O)[C@H](CCCNC(=N)N)NC(=O)[C@H](CC(=O)O)NC(=O)[C@H](CCCCNC(=O)COCCOCCNC(=O)COCCOCCNC(=O)CC[C@H](NC(=O)CCCCCCCCCCCCCCCCC(=O)O)C(=O)O)NC(=O)C(C)(C)NC(=O)[C@@H](NC(=O)[C@H](CO)NC(=O)[C@H](CC(C)C)NC(=O)[C@H](CC(=O)O)NC(=O)[C@H](CO)NC(=O)[C@@H](NC(=O)[C@H](Cc1ccccc1)NC(=O)[C@@H](NC(=O)CNC(=O)[C@H](CCC(=O)O)NC(=O)C(C)(C)NC(=O)[C@@H](N)Cc1ccc(O)cc1)[C@@H](C)O)[C@@H](C)CC)[C@@H](C)CC)[C@@H](C)CC)C(=O)N[C@@H](CCC(N)=O)C(=O)N[C@@H](Cc1c[nH]c2ccccc12)C(=O)N[C@@H](CC(C)C)C(=O)N[C@@H](CC(C)C)C(=O)N[C@@H](C)C(=O)N[C@@H](CCC(N)=O)C(=O)NCC(=O)N1CCC[C@H]1C(=O)N[C@@H](CO)C(=O)N[C@@H](CO)C(=O)NCC(=O)N[C@@H](C)C(=O)N1CCC[C@H]1C(=O)N1CCC[C@H]1C(=O)N1CCC[C@H]1C(=O)N[C@@H](CO)C(N)=O [SEQ ID NO: 35, H2N-Y-Aib-E-G-T-F-I-S-D-L-S-I-Aib-K[{AEEA}2-gGlu-C18OH]-DRIHQEEFIQWLLAQGPSSGAPPPS-NH2] (H-Y[Aib]EGTFISDLSI[Aib]K([AEEA-AEEA-γGlu-C18 diacid])DRIHQEEFIQWLLAQGPSSGAPPPS-NH2)
- AUC(0-t) ([2]; in vivo, iv, 0.25 mg/kg): 12800 ng·h/mL
- Cmax ([2]; in vivo, iv, 0.25 mg/kg): 1850 ng/mL
- clearance ([2]; in vivo, iv, 0.25 mg/kg): 0.325 mL/min/kg
- half-life ([2]; in vivo, iv, 0.25 mg/kg): 6.19 h
- AUC(0-t) ([2]; in vivo, sc, 0.5 mg/kg): 21800 ng·h/mL
- Cmax ([2]; in vivo, sc, 0.5 mg/kg): 1400 ng/mL
- bioavailability ([2]; in vivo, sc, 0.5 mg/kg): 86%
- half-life ([2]; in vivo, sc, 0.5 mg/kg): 6.97 h
- Blood glucose concentration AUC ([3]; Example 14 study, 3 nmol/kg s.c. 6 h before i.p. glucose, vehicle 24.44): +24.41 ± 0.743 mmol/L* 0-2 h
- Incremental blood glucose concentration AUCi ([3]; Example 14 study, 3 nmol/kg s.c., vehicle 5.22): +5.57 ± 0.454 mmol/L* 0-2 h
- Blood glucose concentration AUC ([3]; Example 14 study, 10 nmol/kg s.c. 6 h before i.p. glucose, vehicle 24.44): +20.67 ± 0.516 mmol/L* 0-2 h
- Incremental blood glucose concentration AUCi ([3]; Example 14 study, 10 nmol/kg s.c., vehicle 5.22): +5.05 ± 0.432 mmol/L* 0-2 h
- Blood glucose concentration AUC ([3]; Example 14 study, 30 nmol/kg s.c. 6 h before i.p. glucose, vehicle 24.44): +18.45 ± 0.308 mmol/L* 0-2 h
- Incremental blood glucose concentration AUCi ([3]; Example 14 study, 30 nmol/kg s.c., vehicle 5.22): +3.03 ± 0.225 mmol/L* 0-2 h
- Blood glucose concentration AUC ([3]; Example 14 study, 100 nmol/kg s.c. 6 h before i.p. glucose, vehicle 24.44): +15.17 ± 0.452 mmol/L* 0-2 h
- Incremental blood glucose concentration AUCi ([3]; Example 14 study, 100 nmol/kg s.c., vehicle 5.22): +1.76 ± 0.222 mmol/L* 0-2 h
- minimal effective dose for improvement of i.p. glucose tolerance [3]: 10 to 30 nmol/kg
